Measurements from ChEMBL document CHEMBL1201862, “PubChem BioAssay data set” (2004).
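Exposure lasted 48 hours, with cells grown in 96-well plates and compounds tested at five concentrations. GI50: concentration for 50% inhibition of growth.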 The source made the active and inactive calls. Cut-off read from the data, not from the text of the source: active = GI50 up to about 1.1 µM and inactive = higher.

Assays:
Assay in all cases: DTP human tumour cell line panel, 48 h
[1] = test system: IGROV-1
[2] = test system: NCI-H460
[3] = test system: RPMI-8226
[4] = test system: MOLT-4
[5] = test system: SW-620
[6] = test system: SK-MEL-5
[7] = test system: ACHN
[8] = test system: SK-MEL-28
[9] = test system: K562
[10] = test system: KM-20L2
[11] = test system: HOP-62
[12] = test system: OVCAR-8
[13] = test system: CAKI-1
[14] = test system: SF-295
[15] = test system: HCT-15
[16] = test system: 786-0
[17] = test system: CCRF-CEM
[18] = test system: A498
[19] = test system: HCT-116
[20] = test system: SN12C
[21] = test system: COLO 205
[22] = test system: UO-31
[23] = test system: SF-539
[24] = test system: UACC-257
[25] = test system: OVCAR-5
[26] = test system: SNB-75
[27] = test system: OVCAR-3
[28] = test system: XF498
[29] = test system: SF-268
[30] = test system: HCC 2998
[31] = test system: A549
[32] = test system: NCI-H23
[33] = test system: HT-29
[34] = test system: SK-OV-3
[35] = test system: NCI-H522
[36] = test system: SNB-19
[37] = test system: EKVX
[38] = test system: Malme-3M
[39] = test system: U-251
[40] = test system: UACC-62
[41] = test system: SK-MEL-2
[42] = test system: KM12
[43] = test system: TK-10
[44] = test system: M14
[45] = test system: MCF7
[46] = test system: MDA-MB-435
[47] = test system: MDA-MB-231
[48] = test system: DLD-1
[49] = test system: LXFL 529
[50] = test system: Hs-578T
[51] = test system: DU-145
[52] = test system: HOP-92
[53] = test system: PC-3
[54] = test system: RXF 393
[55] = test system: T47D
[56] = test system: LOX IMVI
[57] = test system: NCI/ADR-RES
[58] = test system: SNB-78
[59] = test system: HL-60
[60] = test system: NCI-H226
[61] = test system: M19-MEL
[62] = test system: SR
[63] = test system: OVCAR-4
[64] = test system: MDA-N
[65] = test system: DMS-273
[66] = test system: BT-549

Measured: GI50

Nc1ccccc1Nc1ccccc1C(=O)[O-].Nc1ccccc1Nc1ccccc1C(=O)[O-].[Zn+2]
inactive: [1] 40.6 µM | [2] > 100 µM | [3] > 100 µM | [4] > 100 µM | [5] > 100 µM | [6] 91.4 µM | [7] > 100 µM | [8] > 100 µM | [9] 62.4 µM | [10] > 100 µM | [11] > 100 µM | [12] > 100 µM | [13] > 100 µM | [14] 32.8 µM | [16] > 100 µM | [17] 33 µM | [18] > 100 µM | [19] > 100 µM | [20] > 100 µM | [21] > 100 µM | [22] > 100 µM | [23] > 100 µM | [24] 33.7 µM | [25] > 100 µM | [26] 17.7 µM | [27] 23.4 µM | [28] 28.1 µM | [29] 45.6 µM | [30] > 100 µM | [31] > 100 µM | [32] > 100 µM | [33] > 100 µM | [34] > 100 µM | [35] 19.7 µM | [36] > 100 µM | [37] > 100 µM | [38] > 100 µM | [39] > 100 µM | [40] 25.1 µM | [41] 19.8 µM | [42] > 100 µM | [43] > 100 µM | [44] 51.4 µM
> 100 µM: [15]

CN(Cc1ccccc1)/C(=N\C#N)N(Cc1ccccc1)Cc1ccccc1
26.6 µM: [15]
inactive: [1] 24.3 µM | [2] 27.6 µM | [3] 21 µM | [4] 10.5 µM | [5] 40.4 µM | [6] 18.4 µM | [7] 24.3 µM | [8] 27.3 µM | [45] 22.3 µM | [9] 25.2 µM | [46] 15.1 µM | [10] 19.6 µM | [11] 27.7 µM | [12] 29.9 µM | [47] 20.6 µM | [48] 21 µM | [13] 20.1 µM | [14] 14.1 µM | [16] 31.5 µM | [17] 37.2 µM | [18] 44.8 µM | [19] 18.7 µM | [49] 21.9 µM | [20] 34.7 µM | [21] 19 µM | [22] 26.5 µM | [50] 34.8 µM | [23] 19.8 µM | [51] 39.9 µM | [52] 16.9 µM | [24] 21.6 µM | [25] 21.1 µM | [53] 14.8 µM | [54] 28.9 µM | [55] 27.7 µM | [56] 16.4 µM | [26] 30.5 µM | [27] 18 µM | [57] 19.8 µM | [29] 34.4 µM | [58] 26.3 µM | [30] 34.8 µM | [59] 30.1 µM | [31] 31 µM | [60] 28.8 µM | [61] 22.8 µM | [32] 21.9 µM | [33] 14.7 µM | [63] 24.4 µM | [34] 29 µM | [35] 18.1 µM | [36] 40.2 µM | [37] 34.6 µM | [64] 17.9 µM | [38] 25.2 µM | [39] 28.2 µM | [40] 20.4 µM | [41] 20.3 µM | [65] 20.9 µM | [42] 18.7 µM | [43] 33 µM | [44] 20.3 µM | [66] 19.3 µM
active: [62] 0.0383 µM

C=C1C(=O)O[C@H]2C3C(=C(C)CC[C@@H]12)C(=O)[C@@H]1OC31C (stereo partly drawn)
inactive: [1] 5.45 µM | [2] 10.1 µM | [4] 1.36 µM | [6] 1.59 µM | [7] 2.6 µM | [8] 2.34 µM | [45] 1.8 µM | [46] 2.72 µM | [11] 14.8 µM | [12] 2.18 µM | [47] 3.94 µM | [13] 2.67 µM | [14] 14 µM | [16] 1.86 µM | [18] 11.4 µM | [20] 1.63 µM | [21] 1.2 µM | [22] 4.89 µM | [50] 3.03 µM | [23] 2.43 µM | [51] 12.5 µM | [52] 2.93 µM | [24] 2.24 µM | [25] 10.4 µM | [53] 2.69 µM | [54] 1.56 µM | [55] 1.81 µM | [56] 2.11 µM | [26] 2.38 µM | [27] 2 µM | [57] 3.13 µM | [29] 5.19 µM | [30] 14.7 µM | [31] 13 µM | [60] 7.48 µM | [32] 2.21 µM | [33] 1.66 µM | [63] 1.58 µM | [34] 15.4 µM | [35] 1.53 µM | [36] 15.8 µM | [37] 14.4 µM | [64] 1.75 µM | [38] 2.2 µM | [39] 13.4 µM | [40] 2.04 µM | [41] 4.48 µM | [42] 5.73 µM | [43] 2.27 µM | [44] 1.68 µM | [66] 1.95 µM
active: [3] 0.746 µM | [5] 0.685 µM | [9] 0.698 µM | [17] 0.318 µM | [19] 1.11 µM | [59] 0.23 µM | [62] 0.622 µM
1.66 µM: [15]
